Measured values: PubChem BioAssay AID2165 (The Scripps Research Institute Molecular Screening Center, 2009)
Calls of active or inactive are those of the source. Cut-off read from the data, not from the text of the source: active = IC50 below about 9 µM; inactive = the rest.

Target: Tyrosine-protein kinase JAK2 (Homo sapiens) (UniProt O60674)
Assay: JAK2V617F kinase, IRF1 reporter and Ba/F3 cytotoxicity panel, late-stage follow-up, HEL and Ba/F3 cells (AID 2165)

Tyrosine-protein kinase JAK2 (Homo sapiens), sequence (O60674 whole entry, looked up, change not shown): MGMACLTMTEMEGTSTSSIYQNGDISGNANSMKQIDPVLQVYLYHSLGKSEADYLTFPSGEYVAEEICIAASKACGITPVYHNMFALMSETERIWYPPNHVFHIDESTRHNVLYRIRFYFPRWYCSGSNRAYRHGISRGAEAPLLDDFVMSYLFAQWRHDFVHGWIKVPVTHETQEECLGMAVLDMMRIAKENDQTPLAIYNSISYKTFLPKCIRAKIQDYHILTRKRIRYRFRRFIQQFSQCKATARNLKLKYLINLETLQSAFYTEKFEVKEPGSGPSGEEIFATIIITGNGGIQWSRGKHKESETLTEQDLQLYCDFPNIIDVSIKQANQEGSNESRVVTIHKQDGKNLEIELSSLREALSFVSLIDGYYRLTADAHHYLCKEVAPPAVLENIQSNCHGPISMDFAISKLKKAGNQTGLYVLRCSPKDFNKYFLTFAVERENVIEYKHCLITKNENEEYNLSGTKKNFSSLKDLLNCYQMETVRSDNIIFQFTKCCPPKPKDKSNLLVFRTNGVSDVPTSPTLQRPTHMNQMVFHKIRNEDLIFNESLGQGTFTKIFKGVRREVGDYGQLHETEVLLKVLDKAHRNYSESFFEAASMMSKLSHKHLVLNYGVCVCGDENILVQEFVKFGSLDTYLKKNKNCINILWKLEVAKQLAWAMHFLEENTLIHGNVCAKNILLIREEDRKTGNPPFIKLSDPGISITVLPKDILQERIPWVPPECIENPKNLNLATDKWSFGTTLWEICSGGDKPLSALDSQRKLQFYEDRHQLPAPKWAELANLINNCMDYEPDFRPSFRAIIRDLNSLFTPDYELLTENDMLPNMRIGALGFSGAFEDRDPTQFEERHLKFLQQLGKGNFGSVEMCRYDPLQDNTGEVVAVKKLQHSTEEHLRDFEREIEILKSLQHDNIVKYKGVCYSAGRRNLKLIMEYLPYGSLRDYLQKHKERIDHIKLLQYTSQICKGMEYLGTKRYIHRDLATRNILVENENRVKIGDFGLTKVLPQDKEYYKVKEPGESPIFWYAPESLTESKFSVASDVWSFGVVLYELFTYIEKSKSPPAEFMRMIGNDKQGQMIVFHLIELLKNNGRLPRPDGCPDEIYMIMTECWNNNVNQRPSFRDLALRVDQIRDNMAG

## O=C(Oc1cccc2c(O)cccc12)c1ccccc1
Ba/F3, irf1 reporter
  IC50: 8.18 µM
HEL, irf1 reporter
  IC50: > 40 µM (inactive)

## COC1(OC)C(/C=C/c2ccc(Cl)cc2)C(C#N)(C#N)C1(OC)OC (configuration not stated)
Ba/F3, irf1 reporter
  IC50: 1.33 µM
HEL, irf1 reporter
  IC50: 6.57 µM

## COC(=O)/C=C/c1ccc(OC(=O)OC)c(OC(=O)OC)c1
Ba/F3, irf1 reporter
  IC50: 12.6 µM
HEL, irf1 reporter
  IC50: 27.7 µM

## COc1cc2ncnc(NC(C)C)c2cc1OC
HEL, irf1 reporter
  IC50: > 40 µM (inactive)
JAK2V617F
  IC50: > 40 µM (inactive)

## Cc1ccc(O)c(NC(=O)COc2ccc(C)c(C)c2)c1
JAK2V617F
  IC50: > 40 µM (inactive)

## COc1cccc(N(C(=O)CCl)C(C(=O)NCCc2ccccc2)c2cccs2)c1 (configuration not stated)
Ba/F3, irf1 reporter
  IC50: 2.76 µM
HEL, irf1 reporter
  IC50: 1.04 µM

## O=C(C=C=Nc1ccccc1)C(=O)N=C=Cc1ccccc1
Ba/F3, irf1 reporter
  IC50: 1.31 µM
HEL, irf1 reporter
  IC50: 14.2 µM

## COc1cc2ncnc(Nc3cccc(Cl)c3)c2cc1OC
HEL, irf1 reporter
  IC50: > 40 µM (inactive)
JAK2V617F
  IC50: > 40 µM (inactive)

## COc1ccc2nc(C)cc(Sc3nc4ccccc4s3)c2c1
Ba/F3, irf1 reporter
  IC50: 2.98 µM
HEL, irf1 reporter
  IC50: 11 µM

## O=S(=O)(c1cccs1)N1CCN(c2ccc(O)cc2)CC1
Ba/F3, irf1 reporter
  IC50: 7.02 µM
HEL, irf1 reporter
  IC50: 20.9 µM

## O=C(C=Cc1ccccc1F)c1c(-c2ccccc2)c2ccccc2[nH]c1=O
Ba/F3, irf1 reporter
  IC50: 0.39 µM
HEL, irf1 reporter
  IC50: 0.39 µM
JAK2V617F
  IC50: 0.39 µM

## COc1cc2ncnc(Nc3ccc(O)c(Br)c3)c2cc1OC
Ba/F3, irf1 reporter
  IC50: 2.18 µM
HEL, irf1 reporter
  IC50: 2.98 µM
JAK2V617F
  IC50: 30.3 µM

## O=C(CCl)NCc1cc(-c2ccc(Cl)cc2)no1
Ba/F3, irf1 reporter
  IC50: 5.56 µM
HEL, irf1 reporter
  IC50: 7.68 µM

## COc1cc2c(cc1OC)-c1cc(N3CCCc4ccccc43)nc(=O)n1CC2
Ba/F3, irf1 reporter
  IC50: > 40 µM (inactive)
HEL, irf1 reporter
  IC50: > 40 µM (inactive)

## COc1cc2ncnc(NC3CCCCC3)c2cc1OC
HEL, irf1 reporter
  IC50: 5.22 µM
JAK2V617F
  IC50: > 40 µM (inactive)

## Cc1ccccc1CS(=O)(=O)c1nnc([C@H](CC(C)C)NC(=O)OC(C)(C)C)o1
Ba/F3, irf1 reporter
  IC50: 1.96 µM
HEL, irf1 reporter
  IC50: 12.1 µM

## Cc1ccc(O)c(NC(=O)COc2ccccc2Cl)c1
JAK2V617F
  IC50: 0.0247 µM

## COc1ccccc1/C=C/C(=O)c1c2c(c(C)[nH]c1=O)CCCC2
Ba/F3, irf1 reporter
  IC50: > 40 µM (inactive)
HEL, irf1 reporter
  IC50: 1.3 µM
JAK2V617F
  IC50: 1.27 µM

## Cc1ccc(C)c(Sc2ccc(NC(=O)CCl)cc2)c1
Ba/F3, irf1 reporter
  IC50: 2.19 µM
HEL, irf1 reporter
  IC50: 18 µM

## CCCn1c(CN(C)Cc2ccccc2)nc2c1c(=O)n(C)c(=O)n2C
Ba/F3, irf1 reporter
  IC50: 6.43 µM
HEL, irf1 reporter
  IC50: > 40 µM (inactive)

## CCN(CC)S(=O)(=O)c1cccc(-n2c(O)c(C=Nc3ccccc3C(=O)O)c3ccccc3c2=O)c1
Ba/F3, irf1 reporter
  IC50: > 40 µM (inactive)
HEL, irf1 reporter
  IC50: > 40 µM (inactive)

## O=S(=O)(c1cnc(Cl)c(Br)c1)N1CCc2ccccc21
Ba/F3, irf1 reporter
  IC50: 6.61 µM
HEL, irf1 reporter
  IC50: > 40 µM (inactive)

## CC1CCCC(NC(=O)NC(=O)CCl)C1C (configuration not stated)
Ba/F3, irf1 reporter
  IC50: 3.19 µM
HEL, irf1 reporter
  IC50: 31.1 µM

## COc1ccc(C2=Nn3c(nnc3C3CCCCC3)SC2)cc1OC
Ba/F3, irf1 reporter
  IC50: 8.93 µM
HEL, irf1 reporter
  IC50: 13.3 µM

## CC1CCCN(CCCNC(=O)c2cc3c(Cl)nc4ccccc4c3s2)C1 (configuration not stated)
Ba/F3, irf1 reporter
  IC50: 11.6 µM
HEL, irf1 reporter
  IC50: > 40 µM (inactive)

## COc1cccc(F)c1C(C[N+](=O)[O-])c1c(N)n(C)c(=O)n(C)c1=O (configuration not stated)
Ba/F3, irf1 reporter
  IC50: 5.77 µM
HEL, irf1 reporter
  IC50: 9.37 µM

## Cc1[nH]c(=O)c(C(=O)C=Cc2ccc(Cl)cc2)c2c1CCCC2
Ba/F3, irf1 reporter
  IC50: 1.07 µM
HEL, irf1 reporter
  IC50: 0.96 µM
JAK2V617F
  IC50: 2.64 µM

## O=S(=O)(c1cnc(Cl)c(Cl)c1)N1CCc2ccccc21
Ba/F3, irf1 reporter
  IC50: 6.39 µM
HEL, irf1 reporter
  IC50: > 40 µM (inactive)

## O=c1oc2ccc(Cl)cc2nc1/C=C(\O)c1ccco1
Ba/F3, irf1 reporter
  IC50: 5.55 µM
HEL, irf1 reporter
  IC50: 4.75 µM

## COc1cc2ncnc(Nc3ccc(OC(F)(F)F)cc3)c2cc1OC
HEL, irf1 reporter
  IC50: 3.77 µM
JAK2V617F
  IC50: > 40 µM (inactive)

## O=C(NC1C=CS(=O)(=O)C1)c1sc2ccccc2c1Cl (configuration not stated)
Ba/F3, irf1 reporter
  IC50: 8.98 µM
HEL, irf1 reporter
  IC50: > 40 µM (inactive)

## Cc1ccc(O)c(NC(=O)COc2cccc3ccccc23)c1
JAK2V617F
  IC50: 2.34 µM

## O=C(OCn1ncc(Cl)c(Cl)c1=O)c1ccc(F)cc1
Ba/F3, irf1 reporter
  IC50: 1.94 µM
HEL, irf1 reporter
  IC50: 8.04 µM

## Cc1[nH]c(=O)c(C(=O)C=Cc2ccc(Br)cc2)c2c1CCCC2
Ba/F3, irf1 reporter
  IC50: 0.98 µM
HEL, irf1 reporter
  IC50: 1.03 µM
JAK2V617F
  IC50: 3.64 µM

## O=C(CCl)N=c1sccn1Cc1cccc2ccccc12
Ba/F3, irf1 reporter
  IC50: 7.24 µM
HEL, irf1 reporter
  IC50: 0.202 µM
